Results: US4206224A, “Treatment of infections” (Beecham Group Limited, priority 1976, dated 1980)
Converted amounts (≈) assume the structure as drawn. “Also recorded” adds a separate entry of the source. Counter-ions that a name gives are not always drawn.

What was measured:
M. fermentans MW KL 4 = test: Antimycoplasmal MIC, metabolic-inhibition test, M. fermentans MW KL 4; type: cell-based; settings: Mycoplasmopsis fermentans, MWKL4, 168 h, dilutions 250-0.5 μg/ml, 37° C., seven days, read-out: MIC (in vitro antimycoplasmal activity)
M. gallisepticum S6 = test: Antimycoplasmal MIC, metabolic-inhibition test, M. gallisepticum S6; type: cell-based; settings: Mycoplasmoides gallisepticum, 168 h, dilutions 250-0.5 μg/ml, 37° C., seven days, read-out: MIC (in vitro antimycoplasmal activity)
M. synoviae 25204 = test: Antimycoplasmal MIC, metabolic-inhibition test, M. synoviae 25204; type: cell-based; settings: Mycoplasmopsis synoviae, 168 h, dilutions 250-0.5 μg/ml, 37° C., seven days, read-out: MIC (in vitro antimycoplasmal activity)
M. bovis 25025 = test: microbe, parasite or virus in culture; type: cell-based; settings: 25025, 168 h, read-out: MIC (in vitro antimycoplasmal activity)
M. dispar H225 = test: Antimycoplasmal MIC, metabolic-inhibition test, M. dispar H225; type: cell-based; settings: 168 h, dilutions 250-0.5 μg/ml, 37° C., seven days, read-out: MIC (in vitro antimycoplasmal activity)
M. pneumoniae 427 a = test: Antimycoplasmal MIC, metabolic-inhibition test, M. pneumoniae 427 a; type: cell-based; settings: Mycoplasmoides pneumoniae, 168 h, dilutions 250-0.5 μg/ml, 37° C., seven days, read-out: MIC (in vitro antimycoplasmal activity)
M. pulmonis 'JB' [1] = test: Antimycoplasmal MIC, metabolic-inhibition test, M. pulmonis 'JB'; type: cell-based; settings: Mycoplasmopsis pulmonis, 168 h, dilutions 250-0.5 μg/ml, 37° C., seven days, read-out: MIC (in vitro antimycoplasmal activity)
M. suipneumoniae (Laber) = test: Antimycoplasmal MIC, metabolic-inhibition test, M. suipneumoniae (Laber); type: cell-based; settings: Mesomycoplasma hyopneumoniae, 168 h, dilutions 250-0.5 μg/ml, 37° C., seven days, read-out: MIC (in vitro antimycoplasmal activity)
[2] = tested on: mycoplasmas from human and veterinary sources; test: Antimycoplasmal activity in vitro, overall; type: cell-based
Method: 1. The minimal inhibitory concentrations (MIC) of pseudomonic acid and methyl pseudomonate were determined in Microtitre plates, by a modification of the metabolic-inhibition test (Taylor-Robinson, 1967). The compounds were serially diluted in sterile de-ionised water to give a range of concentrations from 250-0.5 μg/ml. Mycoplasma broth containing 1% (w/v) of glucose and 0.005% (w/v) of phenon red, was added at a strength to compensate for its dilution by the aqueous drug solution. Approximately 10^4 colony forming units of mycoplasma were added to each concentration of drug. Drug-free infected, noninfected and pH control wells were included on each plate. Plates were sealed with cellotape and incubated at 37° C. for seven days. The MIC was the lowest concentration of compound that prevented a colour change in the mycoplasma broth, caused by the metabolism of glucose by the mycoplasmas.

Streptococcus faecalis = test: Antibacterial spectrum (MIC), Streptococcus faecalis; type: cell-based; settings: Enterococcus faecalis
Mycoplasma species = test: Antibacterial spectrum (MIC), Mycoplasma species
streptococci = test: Antibacterial spectrum, streptococci; type: cell-based; settings: most streptococci
[3] = tested on: Staphylococcus epidermidis; test: Antibacterial spectrum (MIC), Staphylococcus epidermidis; type: cell-based
Streptococcus pyogenes = test: Antibacterial spectrum (MIC), Streptococcus pyogenes; type: cell-based
Pasteurella multocida = test: Antibacterial activity, Pasteurella multocida; type: cell-based
[4] = tested on: Bordetella bronchiseptica; test: Antibacterial activity, Bordetella bronchiseptica; type: cell-based
Haemophilus influenzae = test: Antibacterial spectrum (MIC), Haemophilus influenzae; type: cell-based
Neisseria meningitidis = test: Antibacterial spectrum (MIC), Neisseria meningitidis; type: cell-based
Toxicity (LD50), mouse = type: in vivo; settings: for LD50: in vivo
[5] = Blood and urinary excretion levels, rat; type: in vivo; settings: 100 mg/kg; for Cmax: blood, read-out: Peak Level (blood); for dose excreted: urine, read-out: Urinary Recovery
Text: (§1) The results of administering pseudomonic acid to four different animal species are shown in Table 2 in terms of peak blood levels and urinary recovery.

M. synoviae ATCC 25204 = test: M. synoviae-induced airsacculitis of chicken; type: in vivo, chicken (white leghorn chicks) infected with M. synoviae
Method: 3. M. synoviae-induced airsacculitis of chicken 0.5 ml volumes of a broth culture containing about 10^8 CFU of M. synoviae ATCC No. 25204 were injected into the left abdominal air sacs of groups of five, one week old, specific pathogen free (SPF) white leghorn chicks. […] Seven days after infection the chicks were autopsied and the air sacs were examined macroscopically for mycoplasmal lesions and microbiologically for the presence of M. synoviae.

[6] = Blood and urinary excretion levels, dog; type: in vivo; settings: 100 mg/kg; for Cmax: blood, read-out: Peak Level (blood); for dose excreted: urine, read-out: Urinary Recovery
Text: as §1

staphylococci = test: Antibacterial spectrum, staphylococci; type: cell-based
Streptococcus pneumoniae = test: Antibacterial spectrum (MIC), Streptococcus pneumoniae; type: cell-based
Gram-negative bacilli = test: Antibacterial spectrum (MIC), Gram-negative bacilli
[7] = Blood and urinary excretion levels, squirrel monkey; type: in vivo; settings: 100 mg/kg; for Cmax: blood, read-out: Peak Level (blood); for dose excreted: urine, read-out: Urinary Recovery
Text: as §1

[8] = Blood and urinary excretion levels, mouse; type: in vivo; settings: 50 mg/kg; for Cmax: blood, read-out: Peak Level (blood); for dose excreted: urine, read-out: Urinary Recovery
Text: as §1

Toxicity (LD50), rat = type: in vivo; settings: for LD50: in vivo
M. pulmonis 'JB' [9] = test: M. pulmonis-induced arthritis of mice; settings: for Number of mice with arthritis/total number mice: 200 mg/kg × 5 s.c.; for prevented the development of arthritis: 200 mg/kg s.c. daily, five consecutive days
Staphylococcus aureus = test: Antibacterial spectrum (MIC), Staphylococcus aureus; type: cell-based
Neisseria gonorrhoeae = test: Antibacterial spectrum (MIC), Neisseria gonorrhoeae; type: cell-based

C/C(=C\C(=O)OCCCCCCCCC(=O)O)C[C@@H]1OC[C@H](C[C@@H]2O[C@H]2[C@@H](C)[C@H](C)O)[C@@H](O)[C@H]1O [Pseudomonic acid (Na salt)]
MIC (M. fermentans MW KL 4): < 0.5 µg/mL | MIC (M. gallisepticum S6): 7.8 µg/mL | MIC (M. synoviae 25204): < 0.5 µg/mL | MIC (M. bovis 25025): < 0.5 µg/mL | MIC (M. dispar H225): < 0.5 µg/mL | MIC (M. pneumoniae 427 a): < 0.5 µg/mL | MIC (M. pulmonis 'JB' [1]): < 0.5 µg/mL | MIC (M. suipneumoniae (Laber)): 1.9 to 3.9 µg/mL | antimycoplasmal activity in vitro (in words) [2]: good antimycoplasmal activity in vitro

C/C(=C\C(=O)OCCCCCCCCC(=O)O)C[C@@H]1OC[C@H](C[C@@H]2O[C@H]2[C@@H](C)[C@H](C)O)[C@@H](O)[C@H]1O [Pseudomonic acid]
MIC (Streptococcus faecalis): 50 µg/mL (≈ 99.9 µM) | antimycoplasmal activity / sensitivity (in words) (Mycoplasma species; Mycoplasma sp, b37: most mycoplasma species): very sensitive; also recorded: particularly high activity | MIC (Mycoplasma species; Mycoplasma species): <0.01 to 25 µg/mL | antibacterial activity (in words) (streptococci): good activity | MIC [3]: 0.25 µg/mL (≈ 0.499 µM) | MIC (Streptococcus pyogenes): 0.25 µg/mL (≈ 0.499 µM) | antibacterial activity (in words) (Pasteurella multocida): has activity | antibacterial activity (in words) [4]: has activity | MIC (Haemophilus influenzae): 0.12 µg/mL (≈ 0.24 µM) | antibacterial activity / susceptibility (in words) (Haemophilus influenzae; including strains resistant to other antibiotics): very susceptible; also recorded: particularly high activity | MIC (Neisseria meningitidis): 0.02 µg/mL (≈ 0.0399 µM) | LD50 (Toxicity (LD50), mouse; iv): 1640 to 2050 mg/kg | LD50 (Toxicity (LD50), mouse; p.c. (so in the source)): 5000 mg/kg | LD50 (Toxicity (LD50), mouse; sc): 4000 to 5000 mg/kg | toxicity (in words) (Toxicity (LD50), mouse; three routes): low degree of toxicity | Cmax ([5]; im): 15800 ng/mL | Cmax ([5]; iv): 66700 ng/mL | dose excreted ([5]; im): < 1% | dose excreted ([5]; iv): < 1% | prevented the development of airsac lesions (M. synoviae ATCC 25204; 200 mg/kg i.m. twice per day): four out of five birds | re-isolation of M. synoviae from airsacs (in words) (M. synoviae ATCC 25204; 200 mg/kg i.m. twice per day): not re-isolated from the airsacs of any | Number birds protected/total (M. synoviae ATCC 25204; 200 mg/kg × 7 i.m., autopsy seven days after infection): 4/5 | Number of birds from which M. synoviae was re-isolated (M. synoviae ATCC 25204; 200 mg/kg × 7 i.m., seven days after infection): 0 | activity in vivo in experimentally induced mycoplasmal infection (in words) (M. synoviae ATCC 25204; chicken): active in vivo | Cmax ([6]; im): 25300 ng/mL | Cmax ([6]; po): 3600 ng/mL | dose excreted ([6]; im): 1% | dose excreted ([6]; po): < 1% | antibacterial activity (in words) (staphylococci): good activity | MIC (Streptococcus pneumoniae): 0.12 µg/mL (≈ 0.24 µM) | antibacterial activity (in words) (Gram-negative bacilli): relatively inactive | Cmax ([7]; im): 40000 ng/mL | Cmax ([7]; po): 26800 ng/mL | dose excreted ([7]; im): 2% | dose excreted ([7]; po): 1.5% | Cmax ([8]; po): < 1000 ng/mL | Cmax ([8]; sc): 7200 ng/mL | dose excreted ([8]; po): < 1% | dose excreted ([8]; sc): < 1% | LD50 (Toxicity (LD50), rat; iv): 1310 to 2560 mg/kg | LD50 (Toxicity (LD50), rat; po): 5000 mg/kg | LD50 (Toxicity (LD50), rat; sc): 5000 mg/kg | toxicity (in words) (Toxicity (LD50), rat; three routes): low degree of toxicity | Number of mice with arthritis/total number mice (M. pulmonis 'JB' [9]; Expt 1, day 3 after infection): 0/6 | Number of mice with arthritis/total number mice (M. pulmonis 'JB' [9]; Expt 1, day 7 after infection): 1/5 | Number of mice with arthritis/total number mice (M. pulmonis 'JB' [9]; Expt 1, day 10 after infection): 1/5 | Number of mice with arthritis/total number mice (M. pulmonis 'JB' [9]; Expt 1, day 14 after infection): 1/5 | Number of mice with arthritis/total number mice (M. pulmonis 'JB' [9]; Expt 2, day 3 after infection): 0/8 | Number of mice with arthritis/total number mice (M. pulmonis 'JB' [9]; Expt 2, day 8 after infection): 2/8 | Number of mice with arthritis/total number mice (M. pulmonis 'JB' [9]; Expt 2, day 10 after infection): 2/8 | Number of mice with arthritis/total number mice (M. pulmonis 'JB' [9]; Expt 2, day 14 after infection): 4/8 | prevented the development of arthritis (M. pulmonis 'JB' [9]; first experiment): four out of five mice | activity in vivo in experimentally induced mycoplasmal infection (in words) (M. pulmonis 'JB' [9]; mice): active in vivo | prevented the development of arthritis (M. pulmonis 'JB' [9]; second experiment): four out of eight mice | MIC (Staphylococcus aureus): 0.25 µg/mL (≈ 0.499 µM) | MIC (Neisseria gonorrhoeae; Neisseria gonorrhoeae): 0.01 µg/mL (≈ 0.02 µM) | antibacterial activity / susceptibility (in words) (Neisseria gonorrhoeae; Neisseria gonorrhoeae (gonococci), including strains resistant to other antibiotics): very susceptible; also recorded: particularly high activity

COC(=O)CCCCCCCCOC(=O)/C=C(\C)C[C@@H]1OC[C@H](C[C@@H]2O[C@H]2[C@@H](C)[C@H](C)O)[C@@H](O)[C@H]1O [methyl pseudomonate]
MIC (M. fermentans MW KL 4): < 0.5 µg/mL | MIC (M. gallisepticum S6): 15.6 µg/mL (≈ 30.3 µM) | MIC (M. synoviae 25204): < 0.5 µg/mL | MIC (M. bovis 25025): < 0.5 µg/mL | MIC (M. dispar H225): < 0.5 µg/mL | MIC (M. pneumoniae 427 a): 7.8 µg/mL (≈ 15.2 µM) | MIC (M. pulmonis 'JB' [1]): < 0.5 µg/mL | MIC (M. suipneumoniae (Laber)): 7.8 µg/mL (≈ 15.2 µM) | antimycoplasmal activity in vitro (in words) [2]: good antimycoplasmal activity in vitro
